Results on three molecules are retold here after paper PMC10238102, “Anti-SARS-CoV-2 Activity of Adamantanes In Vitro and in Animal Models of Infection” (COVID, 2022).

In general, IC50 refers to the concentration at which inhibition is half-maximal. High values mean weaker potency in that assay, low ones greater potency in that assay.

The test system of series [1] is SARS-CoV-2 omicron variant B.1.1.529. In words: microbe, parasite or virus in culture. Format: cell-based. As to conditions: Severe acute respiratory syndrome coronavirus 2, Vero C1008, 48 h.
For series [2] the following is noted: mouse, in vivo.

The structures appear in SMILES notation.

Turning to `NC12CC3CC(CC(C3)C1)C2` [amantadine], it took 106 µM to reach half-maximal inhibition in series [1] (IC50). In addition, the “weight loss at 3 DPI compared to water control” value in series [2] is reported as “significant amount of weight loss”. In series [1], `CCC(CC)COC(=O)[C@H](C)N[P@](=O)(OC[C@H]1O[C@@](C#N)(c2ccc3c(N)ncnn23)[C@H](O)[C@@H]1O)Oc1ccccc1` [remdesivir] had an IC50 of 0.89 µM. As for `CC(N)C12CC3CC(CC(C3)C1)C2` (stereo not shown) [rimantadine], the IC50 in series [1] was found to be 17.8 µM.
